Assay results as given in ChEMBL document CHEMBL1909046, “DrugMatrix in vitro pharmacology data”.

Columns and labels:
[1] = DRUGMATRIX: Atrial Natriuretic Factor (ANF) radioligand binding (ligand: [125I] ANF (rat)); assay type: cell membranes, Cavia porcellus, Dunkin-Hartley, Adrenal gland, Membrane; settings: Not Active = under 50% inhibition at 10 µM
B2 bradykinin receptor = molecular target: T1, B2 bradykinin receptor (Homo sapiens, UniProt P30411); assay type: cell membranes, Membrane; settings: chem-1; also: in other assays of this panel Not Active means under 50% inhibition at 10 µM
T1 sequence (P30411 whole entry): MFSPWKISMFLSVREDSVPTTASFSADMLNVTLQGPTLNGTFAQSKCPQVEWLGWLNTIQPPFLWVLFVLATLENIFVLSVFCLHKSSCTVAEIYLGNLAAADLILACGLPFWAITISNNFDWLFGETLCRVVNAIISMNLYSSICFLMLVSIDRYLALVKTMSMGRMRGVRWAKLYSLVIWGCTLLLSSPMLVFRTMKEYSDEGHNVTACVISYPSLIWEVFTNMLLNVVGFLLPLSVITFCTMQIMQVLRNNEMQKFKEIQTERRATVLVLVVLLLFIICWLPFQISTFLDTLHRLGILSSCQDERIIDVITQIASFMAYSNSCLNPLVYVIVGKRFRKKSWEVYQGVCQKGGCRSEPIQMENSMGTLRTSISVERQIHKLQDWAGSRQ

Cannabinoid receptor 1 = Cannabinoid receptor 1 (Homo sapiens, UniProt P21554); assay type: cell membranes, Chem-1, Membrane; also: in other assays of this panel Not Active means under 50% inhibition at 10 µM
Sequence of Cannabinoid receptor 1 (P21554 whole entry): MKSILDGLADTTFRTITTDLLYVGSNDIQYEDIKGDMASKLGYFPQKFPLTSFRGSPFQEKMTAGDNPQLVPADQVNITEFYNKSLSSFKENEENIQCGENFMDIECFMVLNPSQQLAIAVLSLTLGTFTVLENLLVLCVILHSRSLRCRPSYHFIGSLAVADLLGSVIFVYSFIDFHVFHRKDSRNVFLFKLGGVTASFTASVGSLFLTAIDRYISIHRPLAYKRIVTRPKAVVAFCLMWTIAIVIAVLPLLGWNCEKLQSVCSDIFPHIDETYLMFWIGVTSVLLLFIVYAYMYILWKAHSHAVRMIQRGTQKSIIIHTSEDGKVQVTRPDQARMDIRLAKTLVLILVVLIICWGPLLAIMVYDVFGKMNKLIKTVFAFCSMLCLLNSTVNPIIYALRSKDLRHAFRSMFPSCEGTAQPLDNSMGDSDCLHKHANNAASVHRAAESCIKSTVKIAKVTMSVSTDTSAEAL

[2] = DRUGMATRIX: Glutamate, Kainate radioligand binding (ligand: [3H] Kainic acid); assay type: cell membranes, Rattus norvegicus, Wistar, Brain, Membrane; settings: Not Active = under 50% inhibition at 10 µM
[3] = molecular target: T2, Muscarinic acetylcholine receptor M2 (Homo sapiens, UniProt P08172); assay type: cell membranes, CHO-K1, Membrane; settings: cho-k1; also: in other assays of this panel Not Active means under 50% inhibition at 10 µM
T2 sequence (P08172 whole entry): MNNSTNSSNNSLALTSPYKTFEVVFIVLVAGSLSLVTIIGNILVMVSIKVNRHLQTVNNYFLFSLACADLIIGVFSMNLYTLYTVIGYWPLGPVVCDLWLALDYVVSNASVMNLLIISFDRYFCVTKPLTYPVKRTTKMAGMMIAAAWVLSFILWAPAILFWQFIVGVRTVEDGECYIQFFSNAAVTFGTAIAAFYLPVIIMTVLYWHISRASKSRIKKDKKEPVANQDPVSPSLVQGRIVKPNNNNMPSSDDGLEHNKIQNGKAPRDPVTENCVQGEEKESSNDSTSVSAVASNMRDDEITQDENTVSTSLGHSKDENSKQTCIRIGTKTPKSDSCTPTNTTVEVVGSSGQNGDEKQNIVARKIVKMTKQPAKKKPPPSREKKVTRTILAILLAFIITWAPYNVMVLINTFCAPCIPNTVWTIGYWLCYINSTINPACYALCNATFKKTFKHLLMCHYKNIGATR

[4] = DRUGMATRIX: Nicotinic Acetylcholine radioligand binding (ligand: [125I] Epibatidine); assay type: cell membranes, Membrane; settings: imr-32; Not Active = under 50% inhibition at 10 µM
Glucocorticoid receptor = molecular target: T3, Glucocorticoid receptor (Homo sapiens, UniProt P04150); settings: hela s3; also: in other assays of this panel Not Active means under 50% inhibition at 10 µM
T3 sequence (P04150 whole entry): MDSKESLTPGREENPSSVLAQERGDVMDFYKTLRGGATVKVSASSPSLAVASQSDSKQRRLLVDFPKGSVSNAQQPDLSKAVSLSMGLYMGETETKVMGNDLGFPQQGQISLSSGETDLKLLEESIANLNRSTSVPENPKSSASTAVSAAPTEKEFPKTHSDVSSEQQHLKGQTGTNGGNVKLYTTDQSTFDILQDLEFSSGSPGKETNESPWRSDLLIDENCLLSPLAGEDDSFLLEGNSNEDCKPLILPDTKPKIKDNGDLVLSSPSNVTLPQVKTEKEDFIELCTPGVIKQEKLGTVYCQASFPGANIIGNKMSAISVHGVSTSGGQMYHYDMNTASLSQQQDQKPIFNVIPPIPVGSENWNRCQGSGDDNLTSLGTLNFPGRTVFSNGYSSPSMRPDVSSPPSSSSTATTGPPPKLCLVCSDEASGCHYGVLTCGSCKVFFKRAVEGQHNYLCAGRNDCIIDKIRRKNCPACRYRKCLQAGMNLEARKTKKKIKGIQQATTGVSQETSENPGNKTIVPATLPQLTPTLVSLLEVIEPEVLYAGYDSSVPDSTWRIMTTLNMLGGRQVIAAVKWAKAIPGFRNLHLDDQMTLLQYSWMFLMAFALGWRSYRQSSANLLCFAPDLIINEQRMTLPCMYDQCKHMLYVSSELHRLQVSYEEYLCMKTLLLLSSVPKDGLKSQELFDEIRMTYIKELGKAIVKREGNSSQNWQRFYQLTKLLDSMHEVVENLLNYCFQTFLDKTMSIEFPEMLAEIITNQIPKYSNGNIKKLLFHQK

Cytochrome P450 1A2 = molecular target: T4, Cytochrome P450 1A2 (Homo sapiens, UniProt P05177); settings: bti-tn-5b1-4; also: in other assays of this panel Not Active means under 50% inhibition at 10 µM
T4 sequence (P05177 whole entry): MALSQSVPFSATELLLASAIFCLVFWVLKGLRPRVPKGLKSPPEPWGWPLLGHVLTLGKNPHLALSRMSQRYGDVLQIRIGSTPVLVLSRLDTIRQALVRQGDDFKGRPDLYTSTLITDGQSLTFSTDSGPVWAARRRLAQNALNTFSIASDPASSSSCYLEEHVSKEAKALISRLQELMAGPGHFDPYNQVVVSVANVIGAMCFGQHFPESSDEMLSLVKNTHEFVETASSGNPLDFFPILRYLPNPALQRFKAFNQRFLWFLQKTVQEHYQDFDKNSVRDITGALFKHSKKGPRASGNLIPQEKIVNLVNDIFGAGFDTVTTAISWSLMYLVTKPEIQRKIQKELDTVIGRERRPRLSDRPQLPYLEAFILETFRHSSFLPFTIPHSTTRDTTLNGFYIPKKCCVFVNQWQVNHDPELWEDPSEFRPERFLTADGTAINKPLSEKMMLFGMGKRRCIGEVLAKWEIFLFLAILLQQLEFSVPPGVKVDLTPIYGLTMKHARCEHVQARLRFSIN

Row | Compound | IC50 [1] | Ki [1] | IC50 (B2 bradykinin receptor) | IC50 (Cannabinoid receptor 1; chem-1) | IC50 [2] | Ki [2] | IC50 [3] | IC50 [4] | Ki [4] | IC50 (Glucocorticoid receptor) | IC50 (Cytochrome P450 1A2) | Ki (Cytochrome P450 1A2) | IC50 (Cannabinoid receptor 1; read-out: IC50) [nM] | Ki (Cannabinoid receptor 1; read-out: Ki) [nM] | Ki (Cannabinoid receptor 1; chem-1)
1 | Cc1c(C)c2c(c(C)c1O)CCC(C)(CN1CCN(c3cc(N4CCCC4)nc(N4CCCC4)n3)CC1)O2 (stereo unspecified) | Not Active | Not Active | Not Active | Not Active | Not Active | Not Active | Not Active | Not Active | Not Active | Not Active |  |  |  |  | 
2 | COc1ccc(CCN(C)CCCC(C#N)(c2ccc(OC)c(OC)c2)C(C)C)cc1OC (stereo unspecified) | Not Active | Not Active | Not Active | Not Active | Not Active | Not Active | Not Active | Not Active | Not Active |  | Not Active | Not Active |  |  | 
3 | CN(C)CCOC(c1ccccc1)c1ccccc1 [DIPHENHYDRAMINE] |  |  | Not Active | Not Active |  |  |  |  |  | Not Active |  |  |  |  | 
4 | Clc1ccc(COC(Cn2ccnc2)c2ccc(Cl)cc2Cl)cc1 (stereo unspecified) [ECONAZOLE] |  |  | Not Active |  |  |  |  |  |  | Not Active |  |  |  |  | 
5 | CCN(CC)CCOc1ccc(/C(=C(/Cl)c2ccccc2)c2ccccc2)cc1 [ENCLOMIPHENE] |  |  | Not Active | Not Active |  |  |  |  |  | Not Active | Not Active | Not Active |  |  | 
6 | Fc1ccc(C(c2ccc(F)cc2)N2CCN(C/C=C/c3ccccc3)CC2)cc1 [FLUNARIZINE] |  |  | Not Active |  |  |  | Not Active |  |  | Not Active | Not Active | Not Active | 3030 | 2390 | 
7 | CNCCC(Oc1ccc(C(F)(F)F)cc1)c1ccccc1 (stereo unspecified) [FLUOXETINE] |  |  | Not Active | Not Active |  |  | Not Active |  |  | Not Active | Not Active | Not Active |  |  | 
8 | N#Cc1ccc(C(c2ccc(C#N)cc2)n2cncn2)cc1 [LETROZOLE] | Not Active | Not Active | Not Active | Not Active | Not Active | Not Active | Not Active | Not Active | Not Active | Not Active |  |  |  |  | 
9 | CCN(CC)CC(=O)Nc1c(C)cccc1C [LIDOCAINE] | Not Active | Not Active | Not Active | Not Active | Not Active | Not Active | Not Active | Not Active | Not Active | Not Active |  |  |  |  | 
10 | COc1c2occc2cc2ccc(=O)oc12 [METHOXSALEN] | Not Active | Not Active | Not Active | Not Active | Not Active | Not Active | Not Active | Not Active | Not Active | Not Active |  |  |  |  | 
11 | C[C@H]1C[C@@H]2[C@H]([C@@H](O)C[C@@]3(C)[C@H]2CC[C@]3(O)C(=O)CO)[C@@]2(C)C=CC(=O)C=C12 [METHYLPREDNISOLONE] | Not Active | Not Active | Not Active | Not Active | Not Active | Not Active | Not Active | Not Active | Not Active |  | Not Active | Not Active |  |  | 
12 | Cc1cccc(C)c1OCC(C)N (stereo unspecified) [MEXILETINE] | Not Active | Not Active | Not Active |  | Not Active | Not Active | Not Active | Not Active | Not Active |  | Not Active | Not Active |  |  | Not Active
13 | CC[C@@H](C(=O)[C@@H](C)[C@@H](O)[C@H](C)[C@@H]1O[C@@H]([C@@H](CC)C(=O)O)CC[C@@H]1C)[C@H]1O[C@]2(C=C[C@@H](O)[C@]3(CC[C@@](C)([C@H]4CC[C@](O)(CC)[C@H](C)O4)O3)O2)[C@H](C)C[C@@H]1C [SALINOMYCIN] | Not Active | Not Active | Not Active | Not Active | Not Active | Not Active | Not Active | Not Active | Not Active |  | Not Active | Not Active |  |  | 
14 | O=C(Oc1ccccc1C(=O)O)c1ccccc1O [SALSALATE] | Not Active | Not Active | Not Active | Not Active | Not Active | Not Active | Not Active | Not Active | Not Active |  | Not Active | Not Active |  |  | 
15 | O.O.O.O.O.O.[Cl-].[Cl-].[Sr+2] [STRONTIUM CHLORIDE HEXAHYDRATE] | Not Active | Not Active | Not Active | Not Active | Not Active | Not Active | Not Active | Not Active | Not Active |  | Not Active | Not Active |  |  | 
16 | NC(=O)N1C(=O)/C(=C(\O)c2cccs2)c2cc(Cl)ccc21 [TENIDAP] | Not Active | Not Active | Not Active | Not Active | Not Active | Not Active | Not Active | Not Active | Not Active | Not Active |  |  |  |  | 
17 | CCCCNc1ccc(C(=O)OCCN(C)C)cc1 [TETRACAINE] | Not Active | Not Active | Not Active | Not Active | Not Active | Not Active | Not Active | Not Active | Not Active | Not Active |  |  |  |  | 
18 | Cn1c(=O)c2nc[nH]c2n(C)c1=O.O [THEOPHYLLINE] | Not Active | Not Active | Not Active | Not Active | Not Active | Not Active | Not Active | Not Active | Not Active |  | Not Active | Not Active |  |  | 
19 | Clc1ccccc1CN1CCc2sccc2C1 [TICLOPIDINE] | Not Active | Not Active | Not Active | Not Active | Not Active | Not Active | Not Active | Not Active | Not Active |  | Not Active | Not Active |  |  | 
20 | O=C(Nc1ccc(Br)cc1)c1cc(Br)cc(Br)c1O [TRIBROMSALAN] | Not Active | Not Active | Not Active | Not Active | Not Active | Not Active | Not Active | Not Active | Not Active | Not Active |  |  |  |  | 
